In patent US5318776A, “Composition for preventing graying of the hair” (priority 1988, dated 1994):
Where two headings read alike, the source gives them in different places. Values belong to the compound of their own block, whether it stands above or below them.

Legend:
[1] = Sensory test: degree of change in smell after standing at 30° C. for 3 months;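 as to Stability S.E. (Sensory Evaluation): double circle means no smell deterioration on a four-grade scale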; type: physicochemical; details: for Stability S.E. (Sensory Evaluation) / deterioration in smell (in words): 30° C., 3 months
Protocol: (§1) One month thereafter, regenerated hair was collected from a constant area and the rate (%) of generated grayed hair to all the number of hair collected was estimated. In addition, the aforementioned hair tonic type preparations were allowed to stand at 30° C. for 3 months and the residual amount of the test compounds therein was examined by liquid chromatography as well as the degree of change in smell was also evaluated by means of sensory test.
as §1, with “compositions” for “hair tonic type preparations”, “by” for “by means of”, “test. […] In addition, the abbreviation P means the averaged added molar number of ethylene oxide residues.” for “test.”

grayed hair = assay: Half-Head technique application to scalp of men having grayed hair; type: in vivo, men (40 to 60 years old)
Protocol: Then, the effects of preventing graying of the hair and restoring grayed hair to its natural color were evaluated by comparing the conditions of the portions observed before and after the application of Samples and the results obtained were listed in the following Table VIII. […]
Then, the effectiveness of the hair cream of the invention and that of Comp.

[2] = Stability: residual amount of test compound after standing at 30° C. for 3 months, liquid chromatography; type: physicochemical
Protocol: as §1
as §1, with “compositions” for “hair tonic type preparations”, “by” for “by means of”, “test. […] In addition, the abbreviation P means the averaged added molar number of ethylene oxide residues.” for “test.”

[3] = system: grayed hair (melanocytes); assay: Inhibition of generation of grayed hair in stressed black mice; type: in vivo; details: for Rate of Grayed Hair (%): 0.1 ml twice a day, 1 month
Protocol: It is known that stress is one of the causes of graying of the hair. […] Moreover, the stability of the composition with time was also estimated.
as §1
as §1, with “compositions” for “hair tonic type preparations”, “by” for “by means of”, “test. […] In addition, the abbreviation P means the averaged added molar number of ethylene oxide residues.” for “test.”

[4] = Example 7, hair cream as in Example 5
[5] = Table V, 0.05% test compound in hair tonic, control 17.1
[6] = Example 6, hair tonic as in Example 3
[7] = hair tonic, Table V, 0.05% in hair tonic, 30° C., 3 months, read-out: Stability Residue(%)
[8] = Examples 3 to 5, Half-Head, men, 3 months
[9] = Table III, 0.1% test compound in hair tonic, control 16.5
[10] = hair tonic, Table III, 0.1% in hair tonic, 30° C., 3 months, read-out: Stability Residue(%)

SMILES: CCn1cnc2c(ncn2[C@@H]2O[C@@H]3COP(=O)([O-])O[C@H]3[C@H]2O)c1=N.[Na+] [1-ethyl cAMP-Na]
quality deterioration such as giving out of bad smell ([1]; Example 7, hair cream): did not cause quality deterioration such as giving out of bad smell
effect of preventing graying of the hair and restoring grayed hair to its natural color (in words) (grayed hair; [4]): the same effect of preventing graying of the hair and restoring grayed hair to its natural color as in Example 5
stability (in words) ([2]; Example 7, hair cream): stable

SMILES: Nc1ncnc2c1nc(O)n2[C@@H]1O[C@@H]2COP(=O)(O)O[C@H]2[C@H]1O [8-hydroxy cAMP-Na]
quality deterioration such as giving out of bad smell ([1]; Example 6, hair tonic): did not cause quality deterioration such as giving out of bad smell
Stability S.E. (Sensory Evaluation) ([1]; Table V, 0.05% in hair tonic): .circleincircle.
Rate of Grayed Hair (%) [3, 5]: 5.6%
effect of preventing graying of the hair and restoring grayed hair to its natural color (in words) (grayed hair; [6]): the same effect of preventing graying of the hair and restoring grayed hair to its natural color as in Example 3
stability (in words) ([2]; Example 6, hair tonic): stable
remaining at 2190 h [2, 7]: 99.7%

SMILES: CCN(CC)CC.Cn1cnc2c(ncn2[C@@H]2O[C@@H]3COP(=O)(O)O[C@H]3[C@H]2O)c1=N [1-methyl cAMP-triethylammonium]
effect of preventing graying of the hair and restoring grayed hair to its natural color (in words) (grayed hair; [8]): remarkable effects of preventing graying of the hair and restoring grayed hair to its natural color

SMILES: CCOc1nc2c(N)ncnc2n1[C@@H]1O[C@@H]2COP(=O)(O)O[C@H]2[C@H]1O [8-ethoxy cAMP-Na]
quality deterioration such as giving out of bad smell ([1]; Example 6, hair tonic): did not cause quality deterioration such as giving out of bad smell
Stability S.E. (Sensory Evaluation) ([1]; Table V, 0.05% in hair tonic): .circleincircle.
Rate of Grayed Hair (%) [3, 5]: 5.3%
effect of preventing graying of the hair and restoring grayed hair to its natural color (in words) (grayed hair; [6]): the same effect of preventing graying of the hair and restoring grayed hair to its natural color as in Example 3
stability (in words) ([2]; Example 6, hair tonic): stable
remaining at 2190 h [2, 7]: 99.8%

SMILES: Nc1ncnc2c1nc(F)n2[C@@H]1O[C@@H]2COP(=O)(O)O[C@H]2[C@H]1O [8-fluoro cAMP]
Stability S.E. (Sensory Evaluation) ([1]; Table III, 0.1% in hair tonic): .circleincircle.
Rate of Grayed Hair (%) [3, 9]: 7.6%
remaining at 2190 h [2, 10]: 99.5%

SMILES: O=P1(O)OC[C@H]2O[C@@H](n3cnc4c3ncn3ccnc43)[C@H](O)[C@@H]2O1 [1,N^6 -etheno cAMP]
Stability S.E. (Sensory Evaluation) ([1]; Table III, 0.1% in hair tonic): .circleincircle.
Rate of Grayed Hair (%) [3, 9]: 7.5%
remaining at 2190 h [2, 10]: 99.8%

SMILES: Nc1ncnc2c1nc(SCCO)n2[C@@H]1O[C@@H]2COP(=O)([O-])O[C@H]2[C@H]1O.[Na+] [8-ethylhydroxythio cAMP-Na]
quality deterioration such as giving out of bad smell ([1]; Example 6, hair tonic): did not cause quality deterioration such as giving out of bad smell
Stability S.E. (Sensory Evaluation) ([1]; Table V, 0.05% in hair tonic): .circleincircle.
Rate of Grayed Hair (%) [3, 5]: 5.5%
effect of preventing graying of the hair and restoring grayed hair to its natural color (in words) (grayed hair; [6]): the same effect of preventing graying of the hair and restoring grayed hair to its natural color as in Example 3
stability (in words) ([2]; Example 6, hair tonic): stable
Stability Residue(%) ([2]; Table V, 0.05% in hair tonic, 30° C., 3 months, 131400 min): 99.6%

SMILES: CCCCn1cnc2c(ncn2[C@@H]2O[C@@H]3COP(=O)([O-])O[C@H]3[C@H]2O)c1=N.[Na+] [1-butyl cAMP-Na]
quality deterioration such as giving out of bad smell ([1]; Example 7, hair cream): did not cause quality deterioration such as giving out of bad smell
effect of preventing graying of the hair and restoring grayed hair to its natural color (in words) (grayed hair; [4]): the same effect of preventing graying of the hair and restoring grayed hair to its natural color as in Example 5
stability (in words) ([2]; Example 7, hair cream): stable

SMILES: O=P1(O)OC[C@H]2O[C@@H](n3cnc4c3ncn3ccnc43)[C@H](O)[C@@H]2O1 [1,N^6 -etheno cAMP-K]
effect of preventing graying of the hair and restoring grayed hair to its natural color (in words) (grayed hair; [8]): remarkable effects of preventing graying of the hair and restoring grayed hair to its natural color

SMILES: Nc1ncnc2c1nc(Sc1ccc(Cl)cc1)n2[C@@H]1O[C@@H]2COP(=O)(O)O[C@H]2[C@H]1O [8-4-chlorophenylthio cAMP-Na]
Stability S.E. (Sensory Evaluation) ([1]; Table V, 0.05% in hair tonic): .circleincircle.
Rate of Grayed Hair (%) [3, 5]: 6.0%
remaining at 2190 h [2, 7]: 99.9%

SMILES: Nc1ncnc2c1nc(Cl)n2[C@@H]1O[C@@H]2COP(=O)(O)O[C@H]2[C@H]1O [8-chloro cAMP-Na]
quality deterioration such as giving out of bad smell ([1]; Example 7, hair cream): did not cause quality deterioration such as giving out of bad smell
effect of preventing graying of the hair and restoring grayed hair to its natural color (in words) (grayed hair; [4]): the same effect of preventing graying of the hair and restoring grayed hair to its natural color as in Example 5
stability (in words) ([2]; Example 7, hair cream): stable

SMILES: COc1nc2c(N)ncnc2n1[C@@H]1O[C@@H]2COP(=O)(O)O[C@H]2[C@H]1O [8-methoxy cAMP-Na]
Stability S.E. (Sensory Evaluation) ([1]; Table V, 0.05% in hair tonic): .circleincircle.
Rate of Grayed Hair (%) [3, 5]: 4.5%
effect of preventing graying of the hair and restoring grayed hair to its natural color (in words) (grayed hair; [8]): remarkable effects of preventing graying of the hair and restoring grayed hair to its natural color
remaining at 2190 h [2, 7]: 99.9%

SMILES: CCCCCCCCn1cnc2c(ncn2[C@@H]2O[C@@H]3COP(=O)([O-])O[C@H]3[C@H]2O)c1=N.[Na+] [1-octyl cAMP-Na]
quality deterioration such as giving out of bad smell ([1]; Example 7, hair cream): did not cause quality deterioration such as giving out of bad smell
effect of preventing graying of the hair and restoring grayed hair to its natural color (in words) (grayed hair; [4]): the same effect of preventing graying of the hair and restoring grayed hair to its natural color as in Example 5
stability (in words) ([2]; Example 7, hair cream): stable

SMILES: Nc1ncnc2c1nc(SCc1ccccc1)n2[C@@H]1O[C@@H]2COP(=O)(O)O[C@H]2[C@H]1O [8-benzylthio cAMP-Na]
quality deterioration such as giving out of bad smell ([1]; Example 6, hair tonic): did not cause quality deterioration such as giving out of bad smell
effect of preventing graying of the hair and restoring grayed hair to its natural color (in words) (grayed hair; [6]): the same effect of preventing graying of the hair and restoring grayed hair to its natural color as in Example 3
stability (in words) ([2]; Example 6, hair tonic): stable

SMILES: Nc1ncnc2c1nc(SCc1ccccc1)n2[C@@H]1O[C@@H]2COP(=O)(O)O[C@H]2[C@H]1O [8-benzylthio cAMP]
Stability S.E. (Sensory Evaluation) ([1]; Table III, 0.1% in hair tonic): .circleincircle.
Rate of Grayed Hair (%) [3, 9]: 7.2%
remaining at 2190 h [2, 10]: 100%

SMILES: Cn1cnc2c(ncn2[C@@H]2O[C@@H]3COP(=O)(O)O[C@H]3[C@H]2O)c1=N [1-methyl cAMP]
Stability S.E. (Sensory Evaluation) ([1]; Table III, 0.1% in hair tonic): .circleincircle.
Rate of Grayed Hair (%) [3, 9]: 8.2%
Stability Residue(%) ([2]; Table III, 0.1% in hair tonic, 30° C., 3 months, 131400 min): 99.6%

The next lines start with results.

deterioration in smell (in words) ([1]; Example 2): substantial deterioration in smell
Stability Residue(%) ([2]; hair tonic, 2190 h): 84.5%
SMILES: CCCC(=O)Nc1ncnc2c1ncn2[C@@H]1O[C@@H]2COP(=O)(O)O[C@H]2[C@H]1OC(=O)CCC [N^6,O^2' -dibutyryl cAMP-Na, reference compound]
effect of inhibiting generation of grayed hair (in words) ([3]; Example 2, 0.05%): exhibits the aforementioned effect
Rate of Grayed Hair (%) [3, 5]: 8.8%

Stability S.E. (Sensory Evaluation) ([1]; Table III, 0.1% in hair tonic): .circleincircle.
remaining at 2190 h [2, 10]: 99.9%
SMILES: CSc1nc2c(N)ncnc2n1[C@@H]1O[C@@H]2COP(=O)(O)O[C@H]2[C@H]1O [8-methylthio cAMP]
Rate of Grayed Hair (%) [3, 9]: 8.0%

stability (in words) ([2]; Example 7, hair cream): stable
SMILES: CSc1nc2c(N)ncnc2n1[C@@H]1O[C@@H]2COP(=O)(O)O[C@H]2[C@H]1O [8-methylthio cAMP-Na]
quality deterioration such as giving out of bad smell ([1]; Example 7, hair cream): did not cause quality deterioration such as giving out of bad smell
effect of preventing graying of the hair and restoring grayed hair to its natural color (in words) (grayed hair; [4]): the same effect of preventing graying of the hair and restoring grayed hair to its natural color as in Example 5

Stability S.E. (Sensory Evaluation) ([1]; Table III, 0.1% in hair tonic): .circleincircle.
remaining at 2190 h [2, 10]: 100%
SMILES: Nc1ncnc2c1nc(Sc1ccccc1)n2[C@@H]1O[C@@H]2COP(=O)(O)O[C@H]2[C@H]1O [8-phenylthio cAMP]
Rate of Grayed Hair (%) [3, 9]: 7.1%

stability (in words) ([2]; Example 7, hair cream): stable
SMILES: CNc1nc2c(N)ncnc2n1[C@@H]1O[C@@H]2COP(=O)(O)O[C@H]2[C@H]1O [8-methylamino cAMP-Na]
quality deterioration such as giving out of bad smell ([1]; Example 7, hair cream): did not cause quality deterioration such as giving out of bad smell
effect of preventing graying of the hair and restoring grayed hair to its natural color (in words) (grayed hair; [4]): the same effect of preventing graying of the hair and restoring grayed hair to its natural color as in Example 5

Stability S.E. (Sensory Evaluation) ([1]; Table III, 0.1% in hair tonic): .circleincircle.
remaining at 2190 h [2, 10]: 99.7%
SMILES: COc1nc2c(N)ncnc2n1[C@@H]1O[C@@H]2COP(=O)(O)O[C@H]2[C@H]1O [8-methoxy cAMP]
Rate of Grayed Hair (%) [3, 9]: 7.8%

deterioration in smell (in words) ([1]; Example 1): high deterioration in smell
remaining at 2190 h ([2]; hair tonic, Stability Residue(%)): 86.4%
SMILES: CCCC(=O)Nc1ncnc2c1ncn2[C@@H]1O[C@@H]2COP(=O)(O)O[C@H]2[C@H]1OC(=O)CCC [N^6,O^2' -dibutyryl cAMP, reference compound]
effect of inhibiting generation of grayed hair (in words) ([3]; Example 1, 0.1%): exhibits the grayed hair inhibitory effect
Rate of Grayed Hair (%) [3, 9]: 9.1%
